Data published in US9708321B2, “Spiro-quinazolinone derivatives and their use as positive allosteric modulators of mGluR4” (Merck Patent GmbH, priority 2013, dated 2017).

biological target: T1, hmGluR4 (Homo sapiens, UniProt Q14833); assay: HEK-293 mGluR4 cells cAMP assay with EC20 L-Glutamate (HTRF); format: cell-based; conditions: not given
T1 construct: host or cells: HEK293T
Outline: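 PAM mode in mGluR4 HEK293T suspension cells, glutamine-starved overnight; 10 μM forskolin (final) with EC20 L-glutamate (2.3 μM), 2000 cells/well, 30 min at 37 °C. cAMP measured by two-step HTRF after 60 min at room temperature. Basal control EC20 glutamate; EC100 400 μM glutamate (2×).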

T1 sequence (Q14833 33-912): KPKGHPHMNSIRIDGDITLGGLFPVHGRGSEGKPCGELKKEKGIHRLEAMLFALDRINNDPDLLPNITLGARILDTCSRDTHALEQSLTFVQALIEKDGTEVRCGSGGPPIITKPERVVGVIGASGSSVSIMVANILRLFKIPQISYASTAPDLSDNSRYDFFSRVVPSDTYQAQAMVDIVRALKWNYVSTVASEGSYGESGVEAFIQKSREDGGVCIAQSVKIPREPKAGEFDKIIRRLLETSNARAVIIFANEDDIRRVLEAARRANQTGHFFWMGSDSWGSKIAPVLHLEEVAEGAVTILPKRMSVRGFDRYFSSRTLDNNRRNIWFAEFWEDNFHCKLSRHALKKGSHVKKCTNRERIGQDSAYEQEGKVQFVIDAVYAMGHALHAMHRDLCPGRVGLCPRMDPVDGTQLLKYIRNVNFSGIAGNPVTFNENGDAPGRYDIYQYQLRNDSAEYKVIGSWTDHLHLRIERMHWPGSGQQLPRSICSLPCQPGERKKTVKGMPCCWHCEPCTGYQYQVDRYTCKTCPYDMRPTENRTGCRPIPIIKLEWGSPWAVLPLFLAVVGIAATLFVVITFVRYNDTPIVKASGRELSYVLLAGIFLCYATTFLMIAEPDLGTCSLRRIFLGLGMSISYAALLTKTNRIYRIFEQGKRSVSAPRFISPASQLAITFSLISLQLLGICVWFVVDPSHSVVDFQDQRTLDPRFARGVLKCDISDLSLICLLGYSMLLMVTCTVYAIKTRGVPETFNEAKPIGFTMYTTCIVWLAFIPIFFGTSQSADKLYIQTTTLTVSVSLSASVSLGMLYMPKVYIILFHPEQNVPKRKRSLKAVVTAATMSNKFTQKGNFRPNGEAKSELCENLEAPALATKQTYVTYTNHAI

Row | Compound | EC50 [nM]
1 | COc1ccc(N2C(=O)c3ccccc3CC23CCN(Cc2ccc(F)c(F)c2)CC3)cc1 [Compound 126, 1′-(3,4-difluorobenzyl)-2-(4-methoxyphenyl)-2,4-dihydro-1H-spiro[isoquinoline-3,4′-piperidin]-1-one] | 1000 to 10000

same assay, conditions: positive allosteric activity at EC20 L-Glutamate, 10 μM Forskolin, HEK293T mGluR4 cells, cAMP HTRF; read-out: hrmGluR4/HEK293T-hmGluR4 (EC50)

Row | Compound | EC50 [nM]
2 | O=C1c2ccc(Br)cc2NC2(CCN(C(c3ccc(F)c(F)c3)C(F)(F)F)CC2)N1c1ccc(OC(F)(F)F)cc1 (stereo not drawn) [Compound 107, 7′-Bromo-1-(1-(3,4-difluorophenyl)-2,2,2-trifluoroethyl)-3′-(4-(trifluoromethoxy)phenyl)-1′H-spiro[piperidine-4,2′-quinazolin]-4′(3′H)-one] | < 1000
3 | COc1ccc(N2C(=O)c3ccc(Br)cc3OC23CCN(Cc2ccc(F)c(F)c2)CC3)cc1 [Compound 108, 7-Bromo-1′-(3,4-difluorobenzyl)-3-(4-methoxyphenyl)spiro[benzo[e][1,3]oxazine-2,4′-piperidin]-4(3H)-one] | 1000 to 10000
4 | COc1ccc(N2C(=O)c3ccccc3NC23CCN(Cc2ccccc2C)CC3)cc1 [Compound 109, 3′-(4-Methoxyphenyl)-1-(2-methylbenzyl)-1′H-spiro[piperidine-4,2′-quinazolin]-4′(3′H)-one] | 1000 to 10000
5 | O=C1c2ccc(Br)cc2NC2(CCN(Cc3cnc(Br)s3)CC2)N1c1ccc(OC(F)(F)F)cc1 [Compound 110, 7′-Bromo-1-((2-bromothiazol-5-yl)methyl)-3′-(4-(trifluoromethoxy)phenyl)-1′H-spiro[piperidine-4,2′-quinazolin]-4′(3′H)-one] | 1000 to 10000
6 | COc1ccc(N2C(=O)c3ccccc3NC23CCN(Cc2ccccc2Cl)CC3)cc1 [Compound 111, 1-(2-Chlorobenzyl)-3′-(4-methoxyphenyl)-1′H-spiro[piperidine-4,2′-quinazolin]-4′(3′H)-one] | 1000 to 10000
7 | CCc1ccc(CN2CC3(C2)Nc2ccccc2C(=O)N3c2ccc(OC)cc2)cc1 [Compound 112, 1-(4-Ethylbenzyl)-3′-(4-methoxyphenyl)-1′H-spiro[azetidine-3,2′-quinazolin]-4′(3′H)-one] | 1000 to 10000
8 | Cc1ccc(CN2CCC3(CC2)Nc2cc(Br)ccc2C(=O)N3c2ccc(OC(F)(F)F)cc2)o1 [Compound 113, 7′-Bromo-1-((5-methylfuran-2-yl)methyl)-3′-(4-(trifluoromethoxy)phenyl)-1′H-spiro[piperidine-4,2′-quinazolin]-4′(3′H)-one] | 1000 to 10000
9 | COc1ccc(N2C(=O)c3ccccc3NC23CCN(Cc2ccc(F)cc2)CC3)cc1 [Compound 114, 1-(4-Fluorobenzyl)-3′-(4-methoxyphenyl)-1′H-spiro[piperidine-4,2′-quinazolin]-4′(3′H)-one] | 1000 to 10000
10 | COc1cccc(N2C(=O)c3ccccc3NC23CCN(Cc2cc(Cl)ccc2Cl)CC3)c1 [Compound 115, 1-(2,5-Dichlorobenzyl)-3′-(3-methoxyphenyl)-1′H-spiro[piperidine-4,2′-quinazolin]-4′(3′H)-one] | 1000 to 10000
11 | COc1ccc(N2C(=O)c3ccccc3NC23CCN(Cc2ccccc2C#N)CC3)cc1 [Compound 116, 2-((3′-(4-Methoxyphenyl)-4′-oxo-3′,4′-dihydro-1′H-spiro[piperidine-4,2′-quinazolin]-1-yl)methyl)benzonitrile] | 1000 to 10000
12 | COc1ccc(N2C(=O)c3ccc(-c4ccc(CN(C)C)o4)cc3NC23CCN(Cc2ccc(F)c(F)c2)CC3)cc1 [Compound 117, 1-(3,4-Difluorobenzyl)-7′-(5-((dimethylamino)methyl)furan-2-yl)-3′-(4-methoxyphenyl)-1′H-spiro[piperidine-4,2′-quinazolin]-4′(3′H)-one] | 1000 to 10000
13 | O=C1c2ccc(Br)cc2NC2(CCN(Cc3cccnc3)CC2)N1c1ccc(OC(F)(F)F)cc1 [Compound 118, 7′-Bromo-1-(pyridin-3-ylmethyl)-3′-(4-(trifluoromethoxy)phenyl)-1′H-spiro[piperidine-4,2′-quinazolin]-4′(3′H)-one] | 1000 to 10000
14 | COc1ccc(N2C(=O)c3ccccc3NC23CN(Cc2c(F)cc(F)cc2F)C3)cc1 [Compound 119, 3′-(4-Methoxyphenyl)-1-(2,4,6-trifluorobenzyl)-1′H-spiro[azetidine-3,2′-quinazolin]-4′(3′H)-one] | 1000 to 10000
15 | Cn1cccc1CN1CCC2(CC1)Nc1cc(Br)ccc1C(=O)N2c1ccc(OC(F)(F)F)cc1 [Compound 120, 7′-Bromo-1-((1-methyl-1H-pyrrol-2-yl)methyl)-3′-(4-(trifluoromethoxy)phenyl)-1′H-spiro[piperidine-4,2′-quinazolin]-4′(3′H)-one] | 1000 to 10000
16 | COCCOc1ccc2c(c1)NC1(CCN(Cc3ccc(F)c(F)c3)CC1)N(c1ccc(OC(F)(F)F)cc1)C2=O [Compound 121, 1-(3,4-Difluorobenzyl)-7′-(2-methoxyethoxy)-3′-(4-(trifluoromethoxy)phenyl)-1′H-spiro[piperidine-4,2′-quinazolin]-4′(3′H)-one] | 1000 to 10000
17 | COc1ccc(N2C(=O)c3cc(O)ccc3NC23CCN(Cc2ccc(F)c(F)c2)CC3)cc1 [Compound 122, 1-(3,4-Difluorobenzyl)-6′-hydroxy-3′-(4-methoxyphenyl)-1′H-spiro[piperidine-4,2′-quinazolin]-4′(3′H)-one] | 1000 to 10000
18 | COCCOc1ccc(N2C(=O)c3ccc(F)cc3NC23CN(Cc2ccc(Cl)cc2)C3)cc1 [Compound 123, 1-(4-Chlorobenzyl)-7′-fluoro-3′-(4-(2-methoxyethoxyl)phenyl)-1′H-spiro[azetidine-3,2′-quinazolin]-4′(3′H)-one] | 1000 to 10000
19 | COCCOc1ccc(N2C(=O)c3ccc(F)cc3NC23CN(Cc2ccccc2Cl)C3)cc1 [Compound 124, 1-(2-Chlorobenzyl)-7′-fluoro-3′-(4-(2-methoxyethoxyl)phenyl)-1′H-spiro[azetidine-3,2′-quinazolin]-4′(3′H)-one] | 1000 to 10000
20 | O=C(Nc1ccc(OC(F)(F)F)cc1)c1ccc(Br)cc1O [Compound 125, 4-Bromo-2-hydroxy-N-(4-trifluoromethoxy-phenyl)-benzamide] | < 1000
21 | O=C1c2ccc(F)cc2CC2(CCN(Cc3ccc(F)c(F)c3)CC2)N1c1ccc(OC(F)(F)F)cc1 [Compound 127, 1′-(3,4-difluorobenzyl)-6-fluoro-2-(4-(trifluoromethoxy)phenyl)-2,4-dihydro-1H-spiro[isoquinoline-3,4′-piperidin]-1-one] | 1000 to 10000
